# According to patent publication US20260308149A1, “NOVEL CARBOXAMIDE DERIVATIVES” (ANGELINI PHARMA S.P.A., priority 2023, published 2026):
# Biological target: T1, human Kv7.2 (Homo sapiens, UniProt O43526)
# T1 construct: expressed in transfected cells
# Test: activation (potentiation) of Kv7.2 current, SyncroPatch 384 electrophysiology in CHO cells stably expressing human Kv7.2
# Assay type: cell-based
# Conditions: human Kv7.2 in CHO cells; in presence of 5.6 μM zinc pyrithione; % activation relative to 30 μM ML-213
# Protocol: The potency of Kv7 potentiators was determined using the SyncroPatch 384 (Nanion) high throughput electrophysiology platform.
# CHO cells stably expressing either human Kv7.2, Kv7.4 or Kv7.5/7.3 under a constitutive CMV promoter were used for these studies. Cells were maintained in F12 Hams+1 mM L-glutamine (Hyclone) supplemented with 10% FBS (Sigma), 0.3×NEAA (Non-essential Gamino-acids) and 400 ug/ml G418 at 37° C. in 5% CO2. Cells were cultured in T-225 flasks (Nunc) for 2-3 days to reach 85-95% confluence prior to electrophysiological recording.
# Earle's balanced salt solution (in mM): 135 NaCl, 5.4 KCl, 5 Glucose, 2 CaCl2), 1 MgCl2, 5 HEPES, pH 7.4. Seal enhancer solution (in mM): 90 NaCl, 3 KCl, 35 CaCl2), 10 MgCl2, 10 HEPES, pH 7.4. Extracellular recording solution (in mM): 71 NaCl, 70 NMDG, 13 KCl. 5 Glucose, 2 CaCl2, 1 MgCl2, 10 HEPES, pH 7.4. Intracellular recording solution (in mM): 130 KF, 20 KCl, 4 EGTA, 10 HEPES, 2 EDTA, 0.01 Escin, pH 7.2.
# Cells were harvested for electrophysiological recording upon reaching appropriate confluence. Cells were first washed in DPBS (Hyclone, Cat #SH30028.03) and then 2 ml of Accutase (MP Biomedicals #1000449) was added at 28° C. until ~90% of cells were suspended. F12 HAM's media+1 mM L-glutamine (Hyclone, SH30026.02) was then added to the flask to dilute the accutase. Cells were then triturated until a single cell suspension was achieved, a cell count was performed, and cells were centrifuged for 2 min. at 1,000 rpm. Media was then aspirated, and cells were resuspended in Earle's balanced salt solution to a concentration of 0.75×10^6 cells/ml and allowed to recover for 25 min at 10° C.
# At the beginning of each assay, 20 μl of cell suspension was dispensed into each well of a multi-hole 384-well SyncroPatch chip by the onboard pipettor. Cell sealing was initiated, and seal enhancer solution was added to facilitate seal formation. Upon completion of sealing, cells were washed 3 times with extracellular recording solution and the assay voltage protocol was started. Human Kv7.2, Kv7.4 or Kv7.5/7.3 channels were evaluated using a voltage protocol in which cells were voltage-clamped at a holding potential of −60 mV. Potassium currents were continuously activated with a series of three voltage steps to −30 mV for 3 seconds, 40 mV for 1 second and −90 mV for 4 seconds with 12 seconds between successive voltage sweeps. Potassium currents were measured from the −90 mV repolarizing step. Baseline current was assessed for 3.5 minutes prior to the addition of 5.6 μM zinc pyrithione (1 μM for Kv7.4). Kv7.2, Kv7.4 or Kv7.5/7.3 current in the presence of zinc pyrithione was acquired over five minutes to allow channels to reach steady state activity prior to addition of test agents. Channel activity was monitored for three minutes preceding the addition of 30 μM ML-213 (3 minutes) to achieve maximum activation. 150 mM TEA with 10 μM XE-991 was applied for 2 minutes to measure the leak current during maximum inhibition of Kv7.2, Kv7.4 or Kv7.5/7.3 channels.
# Data were collected on the SyncroPatch platform using PatchControl software (Nanion) and processed and analyzed using DataControl Software (Nanion). Percent activation was calculated from potassium current as follows: The average current for the 5 sweeps in the presence of zinc pyrithione immediately preceding test agent addition was taken as the ‘control’ data. Likewise, the average potassium current in the presence of test agents 5 sweeps immediately preceding addition of 30 μM ML-213 was determined for ‘drug’ data. The average potassium current 5 sweeps immediately prior to addition of 150 mM TEA+10 μM XE-991 was determined for ‘max activation’ data while average currents from 5 sweeps immediately following addition of TEA was determined for ‘max inhibition’ data. Percent activation for each of the 384-wells of a sealchip was calculated as ((‘drug’−‘max inhibition’)/(‘max activation’−‘max inhibition’))*100 with Pipeline Pilot (Accelrys). […]
# T1 sequence (O43526 whole entry): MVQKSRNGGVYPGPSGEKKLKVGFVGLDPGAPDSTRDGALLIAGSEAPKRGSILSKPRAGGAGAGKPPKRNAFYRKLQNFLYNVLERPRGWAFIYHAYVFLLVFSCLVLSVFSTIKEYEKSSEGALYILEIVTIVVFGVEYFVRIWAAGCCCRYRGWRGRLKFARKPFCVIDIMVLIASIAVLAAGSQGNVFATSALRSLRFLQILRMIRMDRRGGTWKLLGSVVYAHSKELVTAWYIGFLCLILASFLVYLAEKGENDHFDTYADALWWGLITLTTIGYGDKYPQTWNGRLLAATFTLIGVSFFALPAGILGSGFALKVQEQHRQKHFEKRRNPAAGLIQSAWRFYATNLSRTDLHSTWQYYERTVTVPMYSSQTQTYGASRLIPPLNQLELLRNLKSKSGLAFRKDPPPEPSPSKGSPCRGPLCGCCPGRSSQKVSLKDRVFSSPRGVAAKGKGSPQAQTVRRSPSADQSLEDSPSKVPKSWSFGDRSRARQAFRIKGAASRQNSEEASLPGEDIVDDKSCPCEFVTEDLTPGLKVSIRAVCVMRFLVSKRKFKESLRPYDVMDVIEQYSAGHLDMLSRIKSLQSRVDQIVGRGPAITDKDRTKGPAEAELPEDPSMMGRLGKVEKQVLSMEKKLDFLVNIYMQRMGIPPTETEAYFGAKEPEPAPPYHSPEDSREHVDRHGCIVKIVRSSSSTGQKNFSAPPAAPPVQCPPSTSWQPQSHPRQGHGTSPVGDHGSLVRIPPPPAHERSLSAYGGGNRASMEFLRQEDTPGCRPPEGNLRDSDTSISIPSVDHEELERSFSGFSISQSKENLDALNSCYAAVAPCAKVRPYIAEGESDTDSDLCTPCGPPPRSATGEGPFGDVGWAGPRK
row,Compound,EC50 [nM]
1,"CO[C@@](C)(CNC(=O)[C@H]1C[C@@H]1c1cccnc1)c1cccc(Cl)c1 (mixture of isomers) [Example 48, (1SR,2SR)-N-[(2R)-2-(3-chlorophenyl)-2-methoxy-propyl]-2-(3-pyridyl)cyclopropanecarboxamide]",9610
2,"COC(C)(CNC(=O)[C@H]1C[C@@H]1c1ccccc1)c1ccnc(Cl)c1 (mixture of isomers) [Example 51, (1S,2S)-N-[(2RS)-2-(2-chloro-4-pyridyl)-2-methoxy-propyl]-2-phenyl-cyclopropanecarboxamide]",940
3,"COc1cc(C(C)(CNC(=O)[C@H]2C[C@@H]2c2ccccc2)OC)ccn1 (mixture of isomers) [Example 52, (1S,2S)-N-[(2RS)-2-methoxy-2-(2-methoxy-4-pyridyl)propyl]-2-phenyl-cyclopropanecarboxamide]",9420
4,"CO[C@@](C)(CNC(=O)[C@@H]1C[C@H]1C1CC1)c1cccc(Cl)c1 (mixture of isomers) [Example 79, (1RS,2SR)—N-[(2R)-2-(3-chlorophenyl)-2-methoxy-propyl]-2-cyclopropyl-cyclopropanecarboxamide]",1120
5,"CO[C@@](C)(CNC(=O)[C@@H]1C[C@H]1C1CCCC1)c1cccc(Cl)c1 (mixture of isomers) [Example 80, (1RS,2SR)—N-[(2R)-2-(3-chlorophenyl)-2-methoxy-propyl]-2-cyclopentyl-cyclopropanecarboxamide]",220
6,"CO[C@@](C)(CNC(=O)[C@H]1C[C@H]1C1CCCC1)c1cccc(Cl)c1 (mixture of isomers) [Example 81, (1SR,2SR)—N-[(2R)-2-(3-chlorophenyl)-2-methoxy-propyl]-2-cyclopentyl-cyclopropanecarboxamide]",500
7,"N#Cc1cccc([C@]2(CNC(=O)[C@H]3C[C@@H]3C3CCC3)CCO2)c1 (mixture of isomers) [Example 101, (1SR,2RS)—N-[[(2S)-2-(3-cyanophenyl)oxetan-2-yl]methyl]-2-cyclobutyl-cyclopropanecarboxamide]",260
8,"N#Cc1cccc([C@]2(CNC(=O)[C@H]3C[C@@H]3c3ccc(F)cc3)CCO2)c1 (mixture of isomers) [Example 107, (1SR,2SR)—N-[[(2S)-2-(3-cyanophenyl)oxetan-2-yl]methyl]-2-(4-fluorophenyl)cyclopropanecarboxamide]",130
9,"CC(C)(C)[C@@H]1C[C@H]1C(=O)NC[C@@]1(c2cccc(C#N)c2)CCO1 (mixture of isomers) [Example 110, (1RS,2RS)-2-tert-butyl-N-[[(2S)-2-(3-cyanophenyl)oxetan-2-yl]methyl]cyclopropanecarboxamide]",490
10,"CC(F)(F)[C@H]1C[C@@H]1C(=O)NC[C@@]1(c2cccc(C#N)c2)CCO1 (mixture of isomers) [Example 113, (1SR,2SR)—N-[[(2S)-2-(3-cyanophenyl)oxetan-2-yl]methyl]-2-(1,1-difluoroethyl)cyclopropanecarboxamide]",2180
11,"CC(C)(C)O[C@H]1C[C@@H]1C(=O)NC[C@@]1(c2cccc(C#N)c2)CCO1 (mixture of isomers) [Example 114, (1SR,2SR)-2-tert-butoxy-N-[[(2S)-2-(3-cyanophenyl)oxetan-2-yl]methyl]cyclopropanecarboxamide]",7520
12,"N#Cc1cccc([C@]2(CNC(=O)[C@H]3C[C@@H]3c3ccccn3)CCO2)c1 (mixture of isomers) [Example 124, (1SR,2SR)—N-[[(2S)-2-(3-cyanophenyl)oxetan-2-yl]methyl]-2-(2-pyridyl)cyclopropanecarboxamide]",6010
13,"CC[C@H]1C[C@@H]1C(=O)NC[C@@]1(c2cccc(C#N)c2)CCO1 (mixture of isomers) [Example 126, (1SR,2SR)—N-[[(2S)-2-(3-cyanophenyl)oxetan-2-yl]methyl]-2-ethyl-cyclopropanecarboxamide]",4980
14,"N#Cc1cccc([C@]2(CNC(=O)[C@H]3C[C@@H]3C3CC(F)(F)C3)CCO2)c1 (mixture of isomers) [Example 127, (1SR,2RS)—N-[[(2S)-2-(3-cyanophenyl)oxetan-2-yl]methyl]-2-(3,3-difluorocyclobutyl)cyclopropanecarboxamide]",1040
15,"CC#C[C@H]1C[C@@H]1C(=O)NC[C@@]1(c2cccc(C#N)c2)CCO1 (mixture of isomers) [Example 134, (1SR,2SR)—N-[[(2S)-2-(3-cyanophenyl)oxetan-2-yl]methyl]-2-prop-1-ynyl-cyclopropanecarboxamide]",1700
16,"CC#C[C@@H]1C[C@@H]1C(=O)NC[C@@]1(c2cccc(C#N)c2)CCO1 (mixture of isomers) [Example 137, (1SR,2RS)—N-[[(2S)-2-(3-cyanophenyl)oxetan-2-yl]methyl]-2-prop-1-ynyl-cyclopropanecarboxamide]",1110
17,"COC(C)(CNC(=O)[C@H]1C[C@@H]1c1ccccc1)c1cccc(Cl)c1 (mixture of isomers) [Example 1, rac-(1S,2S)-N-[2-(3-chlorophenyl)-2-methoxy-propyl]-2-phenyl-cyclopropanecarboxamide]",170
18,"COC(CNC(=O)[C@H]1C[C@@H]1c1ccccc1)c1cccc(Cl)c1 (mixture of isomers) [Example 20, rac-(1R,2R)-N-[2-(3-chlorophenyl)-2-methoxy-ethyl]-2-phenyl-cyclopropanecarboxamide]",970
19,"COC(C)(CNC(=O)N[C@H]1CC2CCC1C2)c1cccc(Cl)c1 (mixture of isomers) [Example 25, 1-[2-(3-chlorophenyl)-2-methoxy-propyl]-3-[rac-(1S,2S,4R)-norbornan-2-yl]urea]",170
20,"CC(C#N)(CNC(=O)[C@H]1C[C@@H]1c1ccccc1)c1cccc(C(F)(F)F)c1 (mixture of isomers) [Example 31, rac-(1S,2S)-N-[2-cyano-2-[3-(trifluoromethyl)phenyl]propyl]-2-phenyl-cyclopropanecarboxamide]",2490
21,"COC(C)(CNC(=O)NC1CC2CCC1C2)c1cccc(Cl)c1 (racemic) [Example 35, 1-[2-(3-chlorophenyl)-2-methoxy-propyl]-3-[rac-(1S,4R)-norbornan-2-yl]urea]",1350
22,"CC(C#N)(CNC(=O)[C@H]1C[C@@H]1c1ccccc1)c1cccc(Cl)c1 (mixture of isomers) [Example 37, rac-(1S,2S)-N-[2-(3-chlorophenyl)-2-cyano-propyl]-2-phenyl-cyclopropanecarboxamide]",1320
23,"O=C(N[C@H]1C[C@@H]2CC[C@H]1C2)N[C@H]1C[C@H](c2cccc(Cl)c2)C1 (racemic) [Example 38, 1-[3-(1r,3r)-(3-chlorophenyl)cyclobutyl]-3-[(1SR,2SR,4RS)-norbornan-2-yl]urea]",830
24,"O=C(NCC(OCC(F)(F)F)c1cccc(Cl)c1)NC1C[C@H]2CC[C@@H]1C2 (mixture of isomers) [Example 45, 1-[2-(3-chlorophenyl)-2-(2,2,2-trifluoroethoxy)ethyl]-3-[rac-(1R,4S)-norbornan-2-yl]urea]",790
25,"O=C(NCC(OC1CCC1)c1cccc(Cl)c1)NC1C[C@H]2CC[C@@H]1C2 (mixture of isomers) [Example 46, 1-[2-(3-chlorophenyl)-2-(cyclobutoxy)ethyl]-3-[rac-(1R,4S)-norbornan-2-yl]urea]",3350
26,"O=C(NCC1(c2cccc(Cl)c2)CCO1)NC1CC2CCC1C2 (racemic) [Example 54, 1-[[2-(3-chlorophenyl)oxetan-2-yl]methyl]-3-[rac-(1S,2S,4R)-norbornan-2-yl]urea]",190
